Data from ChEMBL document CHEMBL2029216, “Synthesis and evaluation of [18F]Fluorobutyl ethacrynic amide: a potential PET tracer for studying glutathione transferase” (Bioorg Med Chem Lett, 2012).
Values belong to the molecule of their own block, whether it stands above or below them.

Tests used:
A549 = experiment: Cytotoxicity against human A549 cells; assay type: functional, cell-based
MCF7 = experiment: Cytotoxicity against human MCF7 cells; assay type: functional, cell-based
IMR-90 = experiment: Cytotoxicity against human IMR90 cells; assay type: cell-based
Liver [1] = experiment: Drug uptake in Sprague-Dawley rat liver expressing GSTalpha assessed as homogeneous distribution of [18F]FBuEA-GSH10 complex at 717 uCi/mL, iv after 120 mins by PET analysis; assay type: ADME, organism-based; details: in vivo, 2 h
Liver [2] = experiment: Drug uptake in TAA-induced cholangiocarcinoma model of rat liver expressing GSTalpha assessed as heterogeneous distribution of [18F]FBuEA-GSH10 complex at 569 uCi/0.6 mL, iv after 120 mins by PET analysis; assay type: ADME, organism-based; details: in vivo, 2 h
Urinary bladder = experiment: Drug uptake in mouse bladder after 5 mins; assay type: ADME, tissue-based; details: in vivo
Liver [3] = experiment: Drug uptake in mouse liver after 5 mins; assay type: ADME, tissue-based; details: in vivo
Kidney = experiment: Drug uptake in mouse kidney after 5 mins; assay type: ADME, tissue-based; details: in vivo
[4] = Octanol-water partition coefficient, Log P of the compound at 12.6 uCi by Shake-flask method; assay type: physicochemical
[5] = Drug uptake in 18 weeks TAA treated rat TAA-induced cholangiocarcinoma model tumor expressing GSTalpha assessed as hot spot using [18F]FDG at 486 uCi/0.23 mL, iv after 30 mins by PET analysis; assay type: ADME, organism-based, Neoplasm; details: in vivo, 0.5 h
[6] = Drug uptake in TAA-induced cholangiocarcinoma model of rat tumor expressing GSTalpha assessed as cold spot using [18F]FDG at 486 uCi/0.23 mL, iv after 5 days by PET analysis; assay type: ADME, organism-based, Neoplasm; details: in vivo, 120 h
[7] = Drug uptake in 23 weeks TAA treated rat TAA-induced cholangiocarcinoma model tumor expressing GSTalpha assessed as cold spot using [18F]FDG at 801 uCi/0.23 mL, iv after 5 to 10 mins by PET analysis; assay type: ADME, organism-based, Neoplasm; details: in vivo
[8] = Half life in rat plasma at 6.3 MBq, iv by HPLC analysis; assay type: ADME, organism-based
Nucleic Acid = experiment: Ratio of drug level in tumor to liver in rat TAA-induced cholangiocarcinoma model; assay type: ADME, tissue-based; details: in vivo

Drug uptake (Liver [1]): Active
Drug uptake (Liver [2]): Active
Drug uptake (Urinary bladder): Active
Drug uptake (Liver [3]): Active
Drug uptake (Kidney): Active
logP [4]: 1.47
Drug uptake [5]: Active
Drug uptake [6]: Active
Drug uptake [7]: Active
SMILES: C=C(CC)C(=O)c1ccc(OCC(=O)NCCCC[18F])c(Cl)c1Cl

half-life [8]: 30 min
SMILES: C=C(CC)C(=O)c1ccc(OCC(=O)O)c(Cl)c1Cl [ETHACRYNIC ACID]
IC50 (A549): 84 µM

The next lines start with the molecule.

SMILES: C=C(CC)C(=O)c1ccc(OCC(=O)NCCCC)c(Cl)c1Cl
IC50 (A549): 13 µM
IC50 (MCF7): 4 µM

SMILES: C=C(CC)C(=O)c1ccc(OCC(=O)NCCCCF)c(Cl)c1Cl
IC50 (A549): 8 µM
IC50 (MCF7): 3 µM
IC50 (IMR-90): 18 µM

SMILES: OC[C@H]1O[C@@H](O)[C@H]([18F])[C@@H](O)[C@@H]1O [FLUDEOXYGLUCOSE-F18]
Ratio (Nucleic Acid): 1.6
